# Reference: ChEMBL document CHEMBL3232720, “Boseongazepines A-C, pyrrolobenzodiazepine derivatives from a Streptomyces sp. 11A057” (Bioorg Med Chem Lett, 2014)
# pIC50: −log10 of the molar value. Active and inactive are the calls of the source. No cut-off for these calls is given here.
# Tests used:
# Salinivibrio costicola = assay: Antimicrobial activity against Vibrio costicola assessed as growth inhibition at 50 ug/disk after 48 hrs by paper disk method; format: functional, organism-based
# Staphylococcus aureus = assay: Antimicrobial activity against Staphylococcus aureus assessed as growth inhibition at 50 ug/disk after 48 hrs by paper disk method; format: functional, organism-based
# Bacillus subtilis = assay: Antimicrobial activity against Bacillus subtilis assessed as growth inhibition at 50 ug/disk after 48 hrs by paper disk method; format: functional, organism-based
# K562 = assay: Growth inhibition of human K562 cells after 96 hrs by EZ-CyTox cell viability assay; format: functional, cell-based; conditions: K562, 96 h
# Jurkat = assay: Growth inhibition of human Jurkat cells after 96 hrs by EZ-CyTox cell viability assay; format: functional, cell-based
# HepG2 = assay: Growth inhibition of human HepG2 cells after 96 hrs by EZ-CyTox cell viability assay; format: functional, cell-based; conditions: HepG2, 96 h
# Escherichia coli = assay: Antimicrobial activity against Escherichia coli assessed as growth inhibition at 50 ug/disk after 48 hrs by paper disk method; format: functional, organism-based
# HL-60 = assay: Growth inhibition of human HL60 cells after 96 hrs by EZ-CyTox cell viability assay; format: functional, cell-based; conditions: HL-60, 96 h
# Candida albicans = assay: Antimicrobial activity against Candida albicans assessed as growth inhibition at 50 ug/disk after 48 hrs by paper disk method; format: functional, organism-based
# Aspergillus fumigatus = assay: Antimicrobial activity against Aspergillus fumigatus assessed as growth inhibition at 50 ug/disk after 48 hrs by paper disk method; format: functional, organism-based
Compound,growth inhibition (GI) (Salinivibrio costicola),growth inhibition (GI) (Staphylococcus aureus),growth inhibition (GI) (Bacillus subtilis),pIC50 (K562),pIC50 (Jurkat),pIC50 (HepG2),growth inhibition (GI) (Escherichia coli),pIC50 (HL-60),growth inhibition (GI) (Candida albicans),growth inhibition (GI) (Aspergillus fumigatus)
COc1cccc2c1NC[C@@H]1CC(C(C)=O)=CN1C2=O,inactive,inactive,inactive,< 4.00,4.14,4.25,inactive,< 4.00,inactive,inactive
C/C=C1\C[C@H]2CNc3c(OC)cccc3C(=O)N2C1 [USABAMYCIN B],inactive,inactive,inactive,5.00,5.20,4.97,inactive,4.87,inactive,inactive
C/C=C1\C[C@H]2CNc3ccccc3C(=O)N2C1,inactive,inactive,inactive,4.23,4.62,4.16,inactive,4.19,inactive,inactive
C/C=C1\C[C@H]2C(=O)Nc3c(OC)cccc3C(=O)N2C1,inactive,inactive,inactive,< 4.00,< 4.00,< 4.00,inactive,< 4.00,inactive,inactive
